Columns and labels:
RT-112 = assay: SIA, collagen I invasion; format: cell-based, human
Method: (§1) 1000—2500 cells/well in 100 μl were seeded in 96 well Corning® Spheroid microplate (CLS4520, Sigma-Aldrich) or in cell-repellent 96 well microplate (650,790, Greiner Bio-one). SIA and analysis was performed as described before. In brief: After spheroid formation (24 – 72 h after seeding), 70 µl medium was removed and replaced with the collagen mixture (2.5 mg/ml Pure Col Collagen I (Advanced Biomatrix)), DMEM 1x (from 10 × stock, Sigma, D2429) and 0.4% Sodium bicarbonate (Sigma, S8761)), resulting in a final collagen concentration of 1.75 mg/ml. Embedded spheroids were stimulated with bFGF (100 ng/ml if not otherwise stated), HGF (30 ng /ml) or EGF (20 ng/ml) and distance of invaded cells quantified 24 – 48 h after embedding. Compounds and BGJ398 were added in Dimethylsulfoxid (DMSO) and corresponding DMSO concentrations were used in control samples.

HCT116 [1] = assay: SIA, collagen I invasion; format: cell-based; conditions: Homo sapiens, HCT-116, 100 ng/ml bFGF
Method: as §1

M059K = assay: SIA, collagen I invasion; format: cell-based; conditions: Homo sapiens, 100 ng/ml bFGF
Method: as §1

DAOY siCTL cells = assay: SIA, bFGF-induced collagen I invasion in control siRNA cells; format: cell-based; conditions: Homo sapiens
Method: as §1
siFRS2 in DAOY cells: 50,000 cells/well in 2 ml medium were seeded in 6 well plates and incubated at 37 °C, 5% CO2. The following day cells were transfected with 10 nM siRNA (5 nM Silencer Select, 5 nM Stealth RNAi siRNA) using Lipofectamin RNAiMAX Transfection Reagent (13,778,075; Invitrogen) and Opti-MEM® medium (15,392,402; Gibco). After 6 h, the medium was exchanged with fresh complete medium and further processed for the SIA protocol.

DMS114 = assay: Boyden chamber transwell migration assay; format: cell-based, human; conditions: 24 h
Method: (§2) Transwells with 5 μm pore size (83.3932.500; Sarstedt) were coated with 50 µl of 0.06 μg/μl Pure Col Collagen I (5005; Advanced BioMatrix) dissolved in 100% EtOH for a final concentration of 10 μg/cm^2. 10,000 – 15,000 cells were resuspended in serum-free medium or serum-free medium containing the appropriate treatment and seeded in the upper chamber of a 24 well plate containing the coated transwell. The lower chamber was filled with either serum-free medium or serum-free medium with bFGF (25 ng/ml). Transwell migration was allowed for 24 h (DMS114) or 48 h (HCT116) at 37 °C, 5% CO2. Inserts were washed twice with PBS and the remaining non-invading cells on the upper surface of the membrane were removed using a cotton swab. The cells were fixed in 4% paraformaldehyde (28908; Thermo Fisher Scientific) in PBS for 5 min at RT. Fixed cells were washed twice with PBS and stained with DAPI for 15 min at RT. Inserts were washed three times in PBS before images of DAPI-stained nuclei were acquired using a widefield Nikon Ti2 microscope at 40 × magnification. Nuclei were counted on the membrane areas using ImageJ software and plotted on Prism 9 software (GraphPad).

HCT116 [2] = assay: Boyden chamber transwell migration assay; format: cell-based, human; conditions: 2.5, 5 or 10 µM, 48 h
Method: as §2

FRS2 = biological target: T1, FRS2 (Homo sapiens, UniProt Q8WU20); assay: CETSA by IB, cell lysates; format: binding; conditions: DAOY lysates
T1 construct: we used the cellular thermal shift assay (CETSA [36]) in DAOY cells; endogenous in cells; host or cells: DAOY cells (intact cells, or freeze-thaw lysates)
T1 sequence (Q8WU20 whole entry): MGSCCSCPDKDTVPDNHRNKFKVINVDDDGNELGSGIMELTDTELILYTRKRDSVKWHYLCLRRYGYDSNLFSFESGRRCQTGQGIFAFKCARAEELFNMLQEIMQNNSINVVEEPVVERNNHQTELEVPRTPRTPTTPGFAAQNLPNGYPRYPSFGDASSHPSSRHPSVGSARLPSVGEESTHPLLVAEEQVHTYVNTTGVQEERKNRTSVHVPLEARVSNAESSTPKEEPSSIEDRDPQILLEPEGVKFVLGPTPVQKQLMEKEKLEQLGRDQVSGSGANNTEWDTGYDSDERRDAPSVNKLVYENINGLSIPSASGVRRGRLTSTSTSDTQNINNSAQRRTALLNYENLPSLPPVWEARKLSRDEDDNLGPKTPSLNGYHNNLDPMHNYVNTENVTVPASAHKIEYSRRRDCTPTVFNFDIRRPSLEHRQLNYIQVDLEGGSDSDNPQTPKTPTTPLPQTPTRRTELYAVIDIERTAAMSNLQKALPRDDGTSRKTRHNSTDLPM
Method: Four 15 cm dishes with 0.5 × 10^6 DAOY cells per dish were grown in full medium o.n. Medium was then removed, cells washed with PBS, detached using trypsin, collected in regular growth medium, centrifuged (300 g, 25 °C, 5 min), washed with PBS and resuspended in 550 µl ice-cold PBS. Cells were lysed with three freeze–thaw cycles (freeze in liquid N2, thaw in 25 °C heat block, vortex quickly) and lysates were placed in aliquots of 250 µl on ice. Compound or solvent was added to 10 µM final concentration and samples were incubated 20 min at 4 °C under rotation. Ten 20 µl aliquots were dispensed in a pre-cooled PCR plate, which was sealed with aluminum foil and placed on ice until heat treatments. Heat treatment was performed in a gradient PCR machine with the following temperatures 40.5, 43.6, 46.2, 48.8. 51.2, 53.8, 56.4, 58.3, 61.7 and 73.8 °C for three min. Plate with samples was kept at RT for 3 min and then kept on ice until centrifugation for 2 min at 500 × g at RT.
Samples were incubated 1 h at 4 °C, with shaking at 500 rpm. Samples are filtered using a MultiScreenHTS HV-Filterplate (Merck, MSHVN4510). Membrane wells were prewetted with 50 µl PBS and centrifuged at 2000 g, RT, 3 min. The lysates were centrifuged at 2000 g, RT, 3 min and 40 µl of each supernatant was transferred to the filterplate and centrifuged at 500 g at RT for 5 min. […]

AKT(pS473) = assay: Immunoblotting, AKT phosphorylation; format: cell-based, human; conditions: SW780 cells
Method: Cells were serum starved o.n. and 10 µM compound or 1 µM (BGJ398) were added 3 h before stimulation with 100 ng/ml bFGF for 15 min. Cells were lysed in RIPA buffer containing protease inhibitor cocktail and lysates resolved by SDS-PAGE. Membranes were probed with primary antibodies against phospho-FRS2, FRS2, phospho-ERK1/2, ERK1/2, pAKT, AKT and tubulin. Integrated density of immuno-reactive bands was quantified using Adobe Photoshop CS3. Integrated densities of phospho bands relative to non-phospho bands of same protein were calculated and plotted as fold-change relative to untreated control conditions. Compounds and BGJ398 were added in DMSO and corresponding DMSO concentrations were used in control samples.

With O=[N+]([O-])c1c(Cl)cc(O)c2c1C1C=CCC1C(c1ccc(Cl)cc1)N2 (stereo not drawn) [Compound 7] the EC50 (RT-112; Homo sapiens, RT-112) was 1060 nM, the “basal and ligand-induced collagen I invasion (result in words)” value (RT-112; RT-112 (FGFR3-TACC3 fusion)) was “reduced both basal and ligand-induced collagen I invasion” and the EC50 (HCT116 [1]) was 416 nM. For the same molecule, the EC50 (M059K) was 3280 nM, the IC50 (DAOY siCTL cells) was 3010 nM and the “concentration at which significant reduction of transwell migration was observed” value (DMS114) was 10 µM. The “basal and bFGF-increased transwell migration (result in words)” value (HCT116 [2]) was “abolished” and the ΔTm at 10 µM (FRS2) was -4.93 °C.

With Cc1[nH]nc(-c2ccc(O)c(C)c2O)c1-c1nc2ccccc2s1 [Compound E12] the “pAKT (result in words)” value (AKT(pS473)) was “increase in pAKT”.
